≈ marks a conversion by molar mass, not a printed value. Where “and” joins values, the source holds several entries; their conditions need not be identical. Equal values may be shown once. Read-outs that look alike come from different tables or passages of the source. Where a SMILES comes first, the peptide text is derived from it. Bridges are numbered along the chain shown (N, C = ends).
What was measured:
[1] = tested on: Pseudomonas aeruginosa CICC21630
E. tarda [2] = type: cell-based, Edwardsiella tarda
Experimental: (§1) All tests were conducted in triplicate.

[3] = tested on: inner membrane of E. tarda; experiment: Inner membrane penetration, PI staining, flow cytometry; type: cell-based, Edwardsiella tarda
Experimental: After washing twice with PBS, the cells were incubated with PI (50 μg/mL) for 15 min and analyzed using a FACS Calibur Flow Cytometer (BD, San Jose, CA, USA).

fish genome DNA = experiment: Gel migration (DNA binding) assay; conditions: O. niloticus genomic DNA, Supplementary Figure S2
Experimental: The genomic DNA of E. tarda or O. niloticus was incubated for 10 min at room temperature with different concentrations of N6 and N6NH2 in binding buffer (5% glycerol, 10 mM Tris-HCl, pH 8.0, 20 mM KCl, 1 mM EDTA, 1 mM dithiothreitol and […] BSA). The mass ratios of peptides and DNA were 0, 0.5, 1, 2, 4, 6, 8, and 10, respectively. The migration of DNA was evaluated by electrophoresis on a 0.7% agarose gel.

E. tarda [4] = experiment: Thermal stability (residual antibacterial activity, inhibition zone); type: physicochemical, Edwardsiella tarda; conditions: incubated 1 h at 100 °C; N6 128 μg/mL; inhibition zone method vs untreated peptide; triplicate
Experimental: (§2) To evaluate the thermal stability of peptides, N6 and N6NH2 were incubated for 1 h at 4, 20, 40, 60, 80 and 100 °C. To measure the pH stability, peptides were incubated for 3 h in 100 mM glycine-HCl buffer (pH 2.0), sodium acetate buffer (pH 4.0), sodium phosphate buffer (pH 6.0), Tris-HCl buffer (pH 8.0) or glycine-NaOH buffer (pH 10.0). In addition, peptides were incubated for 4 h at 37 °C in pepsin (3,000 U/mg, pH 2.0) and trypsin (250 U/mg, pH 8.0) (10:1, w/w) solutions, respectively. […] After treatment, 30 μL of solutions were taken out to determine the antibacterial activity of peptides against E. tarda by the inhibition zone method. The untreated peptides were used as the control. All tests were conducted in triplicate.

E. tarda [5] = experiment: pH stability (residual antibacterial activity, inhibition zone); type: physicochemical, Edwardsiella tarda; conditions: pH values of 2–10, 3 h incubation; N6 128 μg/mL, norfloxacin 10 μg/mL; inhibition zone method vs E. tarda
Experimental: as §2

[6] = tested on: Salmonella typhimurium CVCC533
E. coli CVCCO157 = conditions: broth microdilution, MHB, 1 × 10^5 CFU/mL, 37 °C 18–24 h, n = 3; some N6 data from ref 19
[7] = tested on: Escherichia coli, S. typhimurium, S. enteritidis and S. pullorum; experiment: organism not typed; type: cell-based
Experimental: as §1

Staphylococcus hyicus = experiment: microbe, parasite or virus in culture; type: cell-based
Experimental: as §1

E. tarda [8] = experiment: Time-kill curves; type: cell-based, Edwardsiella tarda; conditions: 10^5 CFU/mL, 28 °C, 200 rpm, plate count every 2 h
Experimental: Time–kill curves for N6 and N6NH2 were determined against E. tarda. In brief, the mid-log phase bacterial cells (10^5 CFU/mL) were mixed with different concentrations of peptides (1 × and 2 × and 4 × MIC) and cultured at 28 °C (200 rpm). Samples of 100 μL were taken from the mixture at intervals of 2 h, continuously diluted, and counted on the plate.

E. tarda cells = experiment: TEM ultrastructure; type: cell-based, Edwardsiella tarda; conditions: 4 × MIC for 2 h, 1 × 10^8 CFU/mL
Experimental: Mid-log phase E. tarda cells (1 × 10^8 CFU/mL) were incubated with 4 × MIC N6 or N6NH2 for 2 h at 37 °C. The bacterial cells were then centrifuged, washed three times with 0.1 M PBS (pH 7.2) and fixed overnight at 4 °C with 2.5% glutaraldehyde. After washing twice with PBS, the cells were post-fixed with 1% osmium tetroxide (OsO4) for 2 h, dehydrated in a graded ethanol series (from 50% to 100%) for 15 min each time and dried by CO2. The cell samples were sputtered with gold-palladium and observed on a QUANTA200 electron microscopy (FEI, Philips, The Netherlands).
The bacterial cells were treated with peptides as described above, fixed with 2.5% glutaraldehyde at 4 °C overnight and post-fixed with 1% OsO4 for 1 h. After washing three times with PBS, the cells were dehydrated with a graded acetone series (50%, 70%, 85%, 95% and 100%, for 7 min each time) and immersed in mixtures of acetone and resin (3:1, 1:1 and 1:3, 40 min each time). The samples were infiltrated with a pure epoxy resin overnight, embedded in capsules containing embedding medium and polymerized at 45 °C for 3 h and at 65 °C for 24 h, respectively. Thin sections were cut using an ultramicrotome, stained with 1% uranyl acetate and examined by a JEM1400 (JEDL, Tokyo, Japan).

[9] = broth microdilution, MHB, 1 × 10^5 CFU/mL, 37 °C 18–24 h, n = 3, some N6 data from ref 19

CC(C)[C@@H]1NC(=O)CNC(=O)[C@H](CC(N)=O)NC(=O)[C@H](CCCNC(=N)N)NC(=O)[C@H](Cc2ccc(O)cc2)NC(=O)[C@H](C(C)C)NC(=O)[C@@H](NC(=O)[C@@H](NC(=O)[C@H](CC(N)=O)NC(=O)[C@H](Cc2c[nH]c3ccccc23)NC(=O)[C@H](C)NC(=O)[C@H](Cc2ccccc2)NC(=O)CN)C(C)C)CSSC[C@@H](C(=O)N[C@@H](Cc2c[nH]cn2)C(=O)N[C@@H](CCCNC(=N)N)C(=O)N[C@@H](CCCNC(=N)N)C(=O)N[C@@H](C)C(=O)N[C@@H](CC(N)=O)C(=O)O)NC(=O)[C@H](C(C)C)NC(=O)[C@H](CCCNC(=N)N)NC1=O [Peptide N6] (H-GFAWNVCVYRNGVRVCHRRAN-OH; disulfide 7-16; N-terminus assumed)
MIC (S. hyicus 437-2): 25.8 µM | MIC (S. hyicus 437-2; [9]): 64 µg/mL | MIC (E. coli CVCC1515; CVCC1515): 0.4 µM | MIC (E. coli CVCC1515; [9]): 1 µg/mL | MIC ([1]; CICC21630): 1.6 µM | MIC [1, 9]: 4 µg/mL | MBC (E. tarda [2]): 12.8 µg/mL (≈ 5.17 µM) | percentage of E. tarda stained with PI ([3]; 4 × MIC, 120 min, 1 × 10^8 CFU/mL, PI 50 μg/mL, flow cytometry): 77.7% | percentage of E. tarda stained with PI ([3]; within 30 min, 1×, 2× and 4× MIC): less than 5% | MIC (S. aureus ATCC25923; ATCC25923): 0.1 µM | MIC (S. aureus ATCC25923; [9]): 0.25 µg/mL | mass ratio at which migration of fish genome DNA is prevented (fish genome DNA): 2 | MIC (S. pullorum CVCC1802; CVCC1802): 0.2 µM | MIC (S. pullorum CVCC1802; [9]): 0.5 µg/mL | MIC (S. enteritidis CVCC3377; CVCC3377): 0.1 µM | MIC (S. enteritidis CVCC3377; [9]): 0.25 µg/mL | decrease of antimicrobial activity against E. tarda after heating (E. tarda [4]): 6.7% | MIC (S. aureus ATCC546; ATCC546): 1.62 µM | MIC (S. aureus ATCC546; [9]): 4 µg/mL | antibacterial activity at different pH values (E. tarda [5]): strong antibacterial activity | MIC (Escherichia coli CVCC195; CVCC195): 0.2 µM | MIC (Escherichia coli CVCC195; [9]): 0.5 µg/mL | MIC (S. hyicus 15095): 6.46 µM | MIC (S. hyicus 15095; [9]): 16 µg/mL | MIC [6, 9]: 1 µg/mL | MIC ([6]; murium CVCC533): 0.4 µM | MIC (E. coli CVCCO157): 0.5 μg/mL and 0.2 μM | MIC [7]: 0.25 to 4 µg/mL | MIC (Staphylococcus hyicus): 16 to 64 µg/mL | time at which bacteria were killed (time-kill curve) (E. tarda [8]; 2 × MIC): ≤ 2 h | time at which bacteria were killed (time-kill curve) (E. tarda [8]; 4 × MIC): ≤ 2 h | abnormal cells (TEM) (E. tarda cells): over 95% | MIC (S. pullorum CVCC1789; CVCC1789): 0.2 µM | MIC (S. pullorum CVCC1789; [9]): 0.5 µg/mL

Reference: article PMC7766155, “Improved Stability and Activity of a Marine Peptide-N6NH2 against Edwardsiella tarda and Its Preliminary Application in Fish” (Marine Drugs, 2020)
